This data set can be described thus: LC/MRM-MS quantification of THC in oral fluid with heavy isotope standard curve. The format is in vivo. The following applies: oral fluid of cannabis smoking volunteer, ratio to heavy THC isotope. From the text:
Samples containing drugs of interest are processed and run on the Thermo Quantum Triple Quad MS (LC/MRM MS) in triplicate. Reference Stable heavy isotope analogs are spiked into known drug free OF to determine the sensitivity limit of detection. A standard curve is generated by mixing a known amount of reference heavy isotope analogs with varying amounts of the natural drug, plotting the ratio of the concentration of natural drug to that of the heavy standard isotope analog. The reference heavy isotope analogs are spiked into suspected positive OF sample. The ratio of […] is calculated and fitted to the standard curve to calculate the natural drugs concentration.
The present disclosure provides an exemplary oral fluid sample processing protocol. […]

Molecules are shown by their SMILES.

On to `CCCCCc1cc(O)c2c(c1)OC(C)(C)[C@@H]1CCC(C)=C[C@@H]21` [THC, (6aR,10aR)-6,6,9-trimethyl-3-pentyl-6a, 7,8,10a-tetrahydro-6H-benzo[c]chromen-1-ol], for which the “concentration of THC in saliva” value is 8.615 ng/mL.

Values taken from patent US20240345105A1, “Compositions and Methods for Detecting Analytes in Oral Fluids” (George Mason Research Foundation, Inc., priority 2023, published 2024).
